We go through ten compounds from US11944605B2, “Rapamycin analogs and uses thereof” (Janssen Pharmaceutica NV, priority 2018, dated 2024).

pIC50: −log10 of the molar value. In brackets after ≈: the same amount, converted by molar mass. Entries after “also recorded” stand apart in the source; their conditions may differ.

Data set [1] relates to pS6K1 (p-p70 S6 Kinase (Thr389)) in MCF-7 cells. The experiment in a line: AlphaLISA Ultra pS6K1 Assay. As to conditions: Homo sapiens, 1.5 h; MCF7 cells, 90 min. It counts as cell-based. Put shortly: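 AlphaLISA Ultra read-out (acceptor beads 2 h, then donor beads 2 h) on thawed lysates of MCF-7 cells. Cells had 20–24 h after seeding and a 2 h medium change, then 90 min of compound exposure at 0.5% final DMSO, with lysates stored at −80 °C.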
(Bead proximity is the source of the signal in Alpha formats.)

For data set [2], the system named is mTORC1 over mTORC2. Put plainly: mTORC1 selectivity over mTORC2 at 24 hrs (Western blot based pS6K1 and pAKT assay). As to conditions: 24 hrs. Format: cell-based.
The nature of data set [3]: Solubility in 100 mM phosphate buffer (pH 7.4). As to conditions: pH 7.4, aqueous buffer. It counts as physicochemical. The text has this:
The compound numbers correspond to the compound numbers in Table 1.

Data set [4] has as its system pAKT (p-Akt 1/2/3 (Ser473)) in MCF-7 cells. Put plainly: AlphaLISA Ultra pAKT Assay. Format: cell-based. As to conditions: Homo sapiens, 1.5 h; MCF7 cells, 90 min. The procedure:
AlphaLISA Ultra pAKT Assay
1. MCF-7 cells in Corning 3701 plate and incubate for 20˜24 hour.
16,000˜20,000 cells will be seeded in 36 μL medium per well.
2. Change the culture medium with fresh medium and incubate for another 90 minutes.
3. […]
4. Aspirate […] by HAMILTON, 10 μL rest per well.
5. Add 10 μL 2× lysis buffer using HAMILTON; total volume in wells is 20 μL. Allow cells to shake for 30 min. Cover plate by plastic foil and store plate at −80° C. up to analysis.
6. Thaw cell lysate at RT and transfer 10 ul lysate to assay plate (Optiplate-384).
7. Add 5 μL acceptor beads into assay plate and incubation for 2 hours
8. Add 5 μL donor beads and incubation for 2 hours
9. Count the plate by EnSpire Multimode Plate Reader

The test system of data set [5] is mTORC1 pathway (pS6K1 T389) in PC3 cells. The experiment in a line: Western blot, mTORC1 pathway (pS6K1) in PC3 cells. It counts as cell-based. As to conditions: PC3 cells, 24 hours. The procedure:
(§1) Western Blot Based pS6K1 and pAKT Assay at 24 and 48 Hour Timepoints
(§2) 1. Seed six well plate with 500,000 PC3 cells per well and incubate for 20˜24 hour.
(§3) 2. Add compounds into the cell plate. Incubate for 24 to 48 hours.
(§4) 4. Plate is placed on ice and the media is removed via aspiration. The wells are washed with 1 mL of 1× PBS and then fully aspirated.
(§5) 5. 110 μL of 1% Triton Lysis Buffer is added and each well is scraped vigorously.
(§6) 6. Cell homogenates are transferred to 1.5 mL eppendorf tubes on ice and spun down at 4° C. for 10 minutes at 10,000 rpm.
(§7) 9. The membranes were washed 3× with TBS-T with a 5 minute incubation between each wash then incubated with secondary antibody (LiCor IRDye 800 Donkey Anti Rabbit) for at least 30 minutes.
(§8) 10. The membranes were washed 3× with TBS-T with a 5 minute incubation between each wash.
(§9) 11. The gels were then incubated for 5 minutes with PBS at room temperature then imaged using a Li-Cor.
(§10) The methods employed were substantially similar to those described above. Compounds were evaluated in PC3 cells, Jurkat cells, wild-type mouse embryotic fibroblast (MEF) cells, tuberous sclerosis 2 (TSC2) negative (TSC −/−) MEF cells, and tuberous sclerosis 2 (TSC2) positive (TSC +/+) MEF cells. Cells were incubated with compounds of the present invention for various time periods (e.g., 5 minutes, 15 minutes, 30 minutes, 90 minutes, 24 hours, or 48 hours), and evaluated according to known methodologies, such as those herein described.

The subject of data set [6] is mTORC2 pathway (Akt phosphorylation) in PC3 cells. Put plainly: Western blot, mTORC2 pathway (pAkt) in PC3 cells. It counts as cell-based. As to conditions: 24 hours. Here is the method: as §1, §2, §3, §4, §5, §6, §7, §8, §9, §10
In general terms: Immunoblotting shows a protein as a band on a membrane.

Usually pIC50 stands for −log10 of the IC50, conventionally taken in molar units. Read a high pIC50 as a low IC50. The solubility is the dissolved amount per volume that the medium holds. For `CO[C@@H]1C[C@H](C[C@@H](C)[C@@H]2CC(=O)[C@H](C)/C=C(\C)[C@@H](O)[C@@H](OC)C(=O)[C@H](C)C[C@H](C)/C=C/C=C/C=C(\C)C(OCC(CO)CO)C[C@@H]3CC[C@@H](C)[C@@](O)(O3)C(=O)C(=O)N3CCCC[C@H]3C(=O)O2)CC[C@H]1O` (stereo partly drawn) [I-31, (21E,23E,25E,26E,31R,32S,33R,34R,36R,38S,41S,42R,43R,53S)-42, 53-dihydroxy-40-[3-hydroxy-2-(hydroxymethyl)propoxy]-41-[(1S)-2-[(1S,3R, 4R)-4-hydroxy-3-methoxy-cyclohexyl]-1-methyl-ethyl]-43-methoxy-31,32,33,34,44,45-hexamethyl-65, 66-dioxa-54-azatricyclohexatriaconta-21,23,25(44),26(45)-tetraene-46,47,48,49,50-pentone], the values for the pIC50 in data set [1] and in data set [4] were 9.00 to 10.00 and not above 7.00, respectively. For the same compound, the “mTORC1 selective @ 24 hrs” value in data set [2] is listed as “YES”. In data set [3], this compound yielded a solubility of more than 60 µM.
The corresponding values for `CO[C@@H]1C[C@H](C[C@@H](C)[C@@H]2CC(=O)[C@H](C)/C=C(\C)[C@@H](O)[C@@H](OC)C(=O)[C@H](C)C[C@H](C)/C=C/C=C/C=C(\C)C(OCC3COCCOCCOCCOCCOCCO3)C[C@@H]3CC[C@@H](C)[C@@](O)(O3)C(=O)C(=O)N3CCCC[C@H]3C(=O)O2)CC[C@H]1O` (stereo partly shown) [I-1] are 9.00 to 10.00, not above 7.00, “YES” and 30 to 60 µM (≈ 35.3 to 70.6 µg/mL).
Taken in the same sequence, the figures for `CO[C@@H]1C[C@H](C[C@@H](C)[C@@H]2CC(=O)[C@H](C)/C=C(\C)[C@@H](O)[C@@H](OC)C(=O)[C@H](C)C[C@H](C)/C=C/C=C/C=C(\C)C(OCC3COCCOCCOCCOCCO3)C[C@@H]3CC[C@@H](C)[C@@](O)(O3)C(=O)C(=O)N3CCCC[C@H]3C(=O)O2)CC[C@H]1O` (stereo partly shown) [I-3] were 9.00 to 10.00, not above 7.00, “YES” and 30 to 60 µM (≈ 34 to 67.9 µg/mL).
In the case of `CO[C@@H]1C[C@H](C[C@@H](C)[C@@H]2CC(=O)[C@H](C)/C=C(\C)[C@@H](O)[C@@H](OC)C(=O)[C@H](C)C[C@H](C)/C=C/C=C/C=C(\C)C(OCC(O)CO)C[C@@H]3CC[C@@H](C)[C@@](O)(O3)C(=O)C(=O)N3CCCC[C@H]3C(=O)O2)CC[C@H]1O` (stereo partly drawn) [I-25, (21E,23E,25E,26E,30R,31S,32R,33R,35R,37S,39S,40S,41R,42R,52S)-39-(2,3-dihydroxypropoxy)-41, 52-dihydroxy-40-[(1S)-2-[(1S,3R,4R)-4-hydroxy-3-methoxy-cyclohexyl]-1-methyl-ethyl]-42-methoxy-30, 31,32,33,43,44-hexamethyl-64,65-dioxa-53-azatricyclohexatriaconta-21, 23,25(43),26(44)-tetraene-45,46,47,48,49-pentone], the negative logarithm of the IC50 (pIC50) is 9.00 to 10.00 in data set [1] and not above 7.00 in data set [4]. For the same compound, the “mTORC1 selective @ 24 hrs” value in data set [2] is on record as “YES”.
The corresponding values for `CO[C@@H]1C[C@H](C[C@@H](C)[C@@H]2CC(=O)[C@H](C)/C=C(\C)[C@@H](O)[C@@H](OC)C(=O)[C@H](C)C[C@H](C)/C=C/C=C/C=C(\C)C(OCC3COCCOCCOCCO3)C[C@@H]3CC[C@@H](C)[C@@](O)(O3)C(=O)C(=O)N3CCCC[C@H]3C(=O)O2)CC[C@H]1O` (stereo partly shown) [I-10] are more than 10.00, not above 7.00 and “YES”.
`CO[C@@H]1C[C@H](C[C@@H](C)[C@@H]2CC(=O)[C@H](C)/C=C(\C)[C@@H](O)[C@@H](OC)C(=O)[C@H](C)C[C@H](C)/C=C/C=C/C=C(\C)[C@H](OCCOCCOCCO)C[C@@H]3CC[C@@H](C)[C@@](O)(O3)C(=O)C(=O)N3CCCC[C@H]3C(=O)O2)CC[C@H]1O` [Compound I-30]: the pIC50 in data set [1] was 9.00 to 10.00; in data set [4], not above 7.00. Also, the solubility in data set [3] was more than 60 µM.
On to `CO[C@@H]1C[C@H](C[C@@H](C)[C@@H]2CC(=O)[C@H](C)/C=C(\C)[C@@H](O)[C@@H](OC)C(=O)[C@H](C)C[C@H](C)/C=C/C=C/C=C(\C)C(OCCOCCOCCOCCO)C[C@@H]3CC[C@@H](C)[C@@](O)(O3)C(=O)C(=O)N3CCCC[C@H]3C(=O)O2)CC[C@H]1OCCO` (stereo partly drawn) [I-22, (21E,23E,25E,26E,38R,39S,40R,41R,42S,45S,47S,49R,50R,59R)-49, 59-dihydroxy-46-[2-[2-[2-(2-hydroxyethoxy)ethoxy]ethoxy]ethoxy]-47-[(1R)-2-[(1S,2R, 3R)-3-(2-hydroxyethoxy)-2-methoxy-cyclohexyl]-1-methyl-ethyl]-50-methoxy-38,39,40,41,51,52-hexamethyl-70, 71-dioxa-60-azatricyclohexatriaconta-21,23,25(51),26(52)-tetraene-53, 54,55,56,57-pentone], for which the pIC50 in data set [1] was 9.00 to 10.00; in data set [4], not above 7.00. The “mTORC1 selective @ 24 hrs” value in data set [2] is on record as “YES”.
Taken in the same sequence, the figures for `CO[C@@H]1C[C@H](C[C@@H](C)[C@@H]2CC(=O)[C@H](C)/C=C(\C)[C@@H](O)[C@@H](OC)C(=O)[C@H](C)C[C@H](C)/C=C/C=C/C=C(\C)C(OCCOCCO)C[C@@H]3CC[C@@H](C)[C@@](O)(O3)C(=O)C(=O)N3CCCC[C@H]3C(=O)O2)CC[C@H]1OCCO` (stereo partly drawn) [I-23, (21E,23E,25E,26E,34R,35S,36R,37R,38S,41S,43S,45R,46R,55R)-45,55-dihydroxy-42-[2-(2-hydroxyethoxy)ethoxy]-43-[(1R)-2-[(1S,2R,3R)-3-(2-hydroxyethoxy)-2-methoxy-cyclohexyl]-1-methyl-ethyl]-46-methoxy-34, 35,36,37,47,48-hexamethyl-66,67-dioxa-56-azatricyclohexatriaconta-21, 23,25(47),26(48)-tetraene-49,50,51,52,53-pentone] were more than 10.00, not above 7.00 and “YES”.
Regarding `CO[C@@H]1C[C@H](C[C@@H](C)[C@@H]2CC(=O)[C@H](C)/C=C(\C)[C@@H](O)[C@@H](OC)C(=O)[C@H](C)C[C@H](C)/C=C/C=C/C=C(\C)[C@@H](OCCOCCOCCO)C[C@@H]3CC[C@@H](C)[C@@](O)(O3)C(=O)C(=O)N3CCCC[C@H]3C(=O)O2)CC[C@H]1O` [Compound I-29], the figures for the pIC50 in data set [1] and in data set [4] were more than 10.00 and not above 7.00, respectively. Further, the solubility in data set [3] lay within 30 to 60 µM (≈ 31 to 61.9 µg/mL).
`CO[C@@H]1C[C@H](C[C@@H](C)[C@@H]2CC(=O)[C@H](C)/C=C(\C)[C@@H](O)[C@@H](OC)C(=O)[C@H](C)C[C@H](C)/C=C/C=C/C=C(\C)C(OCCOCCOCCOCCOCCOCCOCCO)C[C@@H]3CC[C@@H](C)[C@@](O)(O3)C(=O)C(=O)N3CCCC[C@H]3C(=O)O2)CC[C@H]1OCCO` (stereo partly drawn) [I-99, (21E,23E,25E,26E,44R,45S,46R,47R,49S,51S,54S,55R,56R,65R)-55, 65-dihydroxy-53-[2-[2-[2-[2-[2-[2-(2-hydroxyethoxy)ethoxy]ethoxy]ethoxy]ethoxy]ethoxy]ethoxy]-54-[(1R)-2-[(1S, 3R,4R)-4-(2-hydroxyethoxy)-3-methoxy-cyclohexyl]-1-methyl-ethyl]-56-methoxy-44, 45,46,47,57,58-hexamethyl-76,77-dioxa-66-azatricyclohexatriaconta-21, 23,25(57),26(58)-tetraene-59,60,61,62,63-pentone] showed a pIC50 in data set [1] of 9.00 to 10.00. Also, the “inhibition of the mTORC1 pathway” value in data set [5] is listed as “appreciable concentration dependent inhibition; also recorded: moderate concentration dependent inhibition”. Moreover, the “mTORC1 selective @ 24 hrs” value in data set [2] is on record as “YES”. In data set [6], the “inhibition of mTORC2 (Akt phosphorylation)” value is reported as “do not inhibit”.
